The subject of one data set is CYP2C-2. Put plainly: Reversible inhibition kinetics (Lineweaver-Burk), CYP2C-2 in RLMs. Format: in vitro ADME, rat. How it is done: (§1) The components of the incubation system were as follows: 0.20 mg/mL HLMs or 0.20 mg/mL RLMs, 0.1 M Tris-HCl, vortioxetine, and the probe substrates of each enzyme. In the study of Km’s (Michaelis–Menten constant) experiment, midazolam (1, 2, 5, 10, 20, 50 and 100 μM in HLMs and RLMs) corresponded to CYP3A4/3A; bupropion (10, 20, 50, 100, 200, 500, 1,000 and 2000 μM in HLMs; 1, 2, 5, 10, 20, 50, 100 and 200 μM in RLMs) corresponded to CYP2B6/2B; amodiaquine (5, 10, 20, 50, 100 and 200 μM in HLMs; 10, 20, 50, 100, 200, 500 μM in RLMs) corresponded to CYP2C8/CYP2C-1; losartan (1, 2, 5, 10, 20, 50, 100, 200 μM in HLMs; 10, 20, 50, 100, 200, 500 and 1,000 μM in RLMs) corresponded to CYP2C9/CYP2C-2; mephenytoin (20, 50, 100, 200, 500 and 1,000 μM in HLMs; 5, 10, 20, 50, 100, 200, 500 and 1,000 μM in RLMs) corresponded to CYP2C19/CYP2C-3; and dextromethorphan (1, 2, 5, 10, 20, 50 and 100 μM in HLMs and RLMs) corresponded to CYP2D6/CYP2D. […]
(§2) All experiments results were detected by UPLC-MS/MS, which equipped with a Waters Acquity UPLC system (Milford, MA, United States) and a Waters Xevo TQ-S triple quadrupole tandem mass spectrometer with an electrospray ionization source (Milford, MA, United States). […]
(§3) IC50 values and enzyme kinetic parameters were calculated by Graphpad Prism 6.0 (GraphPad software Inc., CA, United States). […] Data for each experiment were expressed as mean ± SD (n = 3).

The next data set concerns the target T1, CYP2C8 (Homo sapiens, UniProt P10632).
T1 sequence (P10632 1-490): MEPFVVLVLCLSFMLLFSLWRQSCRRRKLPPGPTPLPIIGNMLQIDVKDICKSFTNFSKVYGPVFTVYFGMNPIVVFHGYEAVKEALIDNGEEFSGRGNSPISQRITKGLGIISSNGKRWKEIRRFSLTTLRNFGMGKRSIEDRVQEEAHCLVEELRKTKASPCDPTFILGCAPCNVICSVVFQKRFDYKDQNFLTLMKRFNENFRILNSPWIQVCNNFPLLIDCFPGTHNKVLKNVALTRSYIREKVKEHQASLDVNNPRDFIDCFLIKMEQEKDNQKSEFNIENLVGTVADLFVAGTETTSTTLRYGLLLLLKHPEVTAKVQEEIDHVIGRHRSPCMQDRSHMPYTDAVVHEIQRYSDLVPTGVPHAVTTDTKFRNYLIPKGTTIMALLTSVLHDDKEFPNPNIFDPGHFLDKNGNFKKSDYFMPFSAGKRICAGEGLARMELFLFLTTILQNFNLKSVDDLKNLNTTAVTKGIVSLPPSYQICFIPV
The data set can be described thus: IC50 of vortioxetine on CYP2C8 (amodiaquine) in HLMs. Format: in vitro ADME. On the set-up: 0.20 mg/mL HLMs; from tissue; host or cells: human liver microsomes. On the procedure: as §1, §2, §3

Another data set concerns CYP2D. Put plainly: IC50-shift experiment, CYP2D in RLMs. Format: in vitro ADME. The settings on record: rat, rat liver microsomes, probe dextromethorphan; for IC50 at 30 min: dextromethorphan 20 μM. How it is done:
as §1, with “CYP2D6/CYP2D. After 5.0 min of preincubation in the shaking water bath, the reaction was started with the addition of 1.0 mM NADPH. The incubated temperature at 37°C for 30 min. After the incubation, the enzyme reaction was stopped by cooling at −80°C, and 200 μL of acetonitrile and 20 μL of internal standard diazepam (200 ng/mL) were added for protein precipitation.” for “CYP2D6/CYP2D.”
IC50-shift was used to investigate whether the drug produced time-dependent inhibition (TDI) of the enzyme. […] During the experiment, the individual substrates midazolam (4 μM), bupropion (40 μM), amodiaquine (3 μM), losartan (8 μM), mephenytoin (90 μM), and dextromethorphan (10 μM) were determined with vortioxetine IC50-shift in HLMs. […]
as §2, §3

Like-named read-outs stand apart in the source and are kept apart here. Some results are limits rather than exact numbers.

For the molecule `Cc1ccc(Sc2ccccc2N2CCNCC2)c(C)c1` [vortioxetine], the Inhibition type result in the data set with CYP2C-2 (losartan, Lineweaver-Burk plot) is listed as “competitive inhibition”. The same molecule registered a Ki at 30 min in the data set with CYP2C-2 (rat, rat liver microsomes, probe losartan) of 0.12 µM. For the same molecule, the IC50 is 15 µM on CYP2C8 (HLMs 0.20 mg/mL, amodiaquine at Km, 37°C, 30 min, read-out: IC50) and > 10 µM on CYP2C8 (inhibitory effect (strength judged by IC50), HLMs). Further, the IC50 at 30 min in the data set with CYP2D (30 min preincubation with 1.0 mM NADPH) is 7.38 µM; in the data set on CYP2D (30 min preincubation without NADPH), 3.35 µM. Moreover, the IC50 shift at 30 min in the data set with CYP2D (ratio IC50 (−) NADPH to IC50 (+) NADPH, read-out: IC50 fold shift) worked out at 0.45.
